Test [1] concerns the target S. aureus DNA gyrase (Staphylococcus aureus, UniProt P20831). The test can be described thus: DNA cleavage assay.
Test [2] relates to S. enterica Typhimurium 14028 ΔtolC1::kan. Put plainly: Minimal inhibitory concentration. The class given is cell-based, Salmonella enterica serovar Typhimurium. The note with it: for MIC: Salmonella enterica, TYPHIMURIUM, read-out: S. enterica Typhimurium 14028 ΔtolC1::kan MIC.
Where [3] appears, read: MIC wildtype 14028 vs efflux-deficient ΔtolC1::kan.

Each structure is given as a SMILES string. In brackets after ≈: the same amount, converted by molar mass. Like-named read-outs stand apart in the source and are kept apart here.

Sequence of S. aureus DNA gyrase (P20831 whole entry): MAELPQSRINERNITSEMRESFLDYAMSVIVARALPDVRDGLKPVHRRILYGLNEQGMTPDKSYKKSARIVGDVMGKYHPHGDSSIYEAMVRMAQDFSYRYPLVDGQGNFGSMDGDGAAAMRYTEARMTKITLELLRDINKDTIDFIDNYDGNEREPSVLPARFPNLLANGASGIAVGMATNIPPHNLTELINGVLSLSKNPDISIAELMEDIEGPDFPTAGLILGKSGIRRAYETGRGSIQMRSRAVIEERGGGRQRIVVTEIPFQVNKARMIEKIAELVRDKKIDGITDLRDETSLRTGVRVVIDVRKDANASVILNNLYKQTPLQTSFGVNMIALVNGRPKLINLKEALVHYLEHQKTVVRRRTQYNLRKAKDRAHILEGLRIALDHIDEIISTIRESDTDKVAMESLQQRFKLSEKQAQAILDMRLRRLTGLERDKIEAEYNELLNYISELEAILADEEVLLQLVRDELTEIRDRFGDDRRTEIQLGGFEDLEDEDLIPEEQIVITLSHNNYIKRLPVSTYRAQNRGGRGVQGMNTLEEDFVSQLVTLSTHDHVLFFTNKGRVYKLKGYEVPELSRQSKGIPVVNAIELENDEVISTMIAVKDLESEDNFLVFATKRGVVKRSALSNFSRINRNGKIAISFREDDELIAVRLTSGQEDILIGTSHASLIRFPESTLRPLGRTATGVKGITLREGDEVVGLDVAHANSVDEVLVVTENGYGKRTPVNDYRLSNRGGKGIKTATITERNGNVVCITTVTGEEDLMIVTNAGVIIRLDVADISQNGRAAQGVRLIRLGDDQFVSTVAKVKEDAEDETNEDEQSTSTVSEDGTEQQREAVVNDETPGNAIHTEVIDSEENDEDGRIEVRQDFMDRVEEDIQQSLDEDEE
Sequence of S. aureus DNA gyrase (P0A0K8 whole entry partner): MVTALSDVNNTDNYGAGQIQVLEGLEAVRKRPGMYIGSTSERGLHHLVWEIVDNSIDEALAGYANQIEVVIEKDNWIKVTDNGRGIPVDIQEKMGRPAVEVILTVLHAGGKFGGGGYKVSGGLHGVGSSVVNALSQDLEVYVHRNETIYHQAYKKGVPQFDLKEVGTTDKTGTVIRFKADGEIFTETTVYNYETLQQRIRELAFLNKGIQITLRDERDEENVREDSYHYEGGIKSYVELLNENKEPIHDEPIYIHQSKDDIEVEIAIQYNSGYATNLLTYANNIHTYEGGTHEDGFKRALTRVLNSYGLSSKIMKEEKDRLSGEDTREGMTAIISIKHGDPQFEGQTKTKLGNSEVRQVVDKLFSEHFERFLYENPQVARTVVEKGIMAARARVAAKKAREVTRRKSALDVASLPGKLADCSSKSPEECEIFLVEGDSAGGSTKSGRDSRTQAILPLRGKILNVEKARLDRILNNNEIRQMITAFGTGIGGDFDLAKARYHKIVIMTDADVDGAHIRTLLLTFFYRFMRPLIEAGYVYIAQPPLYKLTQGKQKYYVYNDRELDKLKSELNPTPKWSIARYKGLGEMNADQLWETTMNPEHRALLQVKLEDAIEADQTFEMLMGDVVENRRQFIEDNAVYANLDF

Turning to `COc1ccc2ncc(F)c(CCN3CCC(C(N)Cc4ccc(C)cc4)CC3)c2n1` (stereo not drawn) [9a], the “levels of SSBs” value in test [1] is “lower levels of SSBs”.
Take `COc1ccc2ncc(F)c(CCN3CCC(/C=C\c4ccc(C)cc4)CC3)c2n1` [21a]: in test [2], the “Fold Change” value is no less than 8.
The MIC is the smallest concentration in the dilution series that meets the test's criterion for growth inhibition. For the compound `COc1ccc2ncc(F)c(CCN3CCC(/C=C/c4ccc(C)cc4)CC3)c2n1` [13a], the MIC in test [2] lay within 0.5 to 1 µg/mL (≈ 1.23 to 2.47 µM).
`O=c1ccc2ncc(=O)n3c2n1C[C@H]3CN1CCC(NCc2cc3c(cn2)OCCC3)CC1` [Gep., gepotidacin, reference compound]: the “Fold Change” value in test [2] (setting [3]) is 4–16. Also, in test [2], the MIC lay within 0.125 to 0.5 µg/mL (≈ 0.279 to 1.11 µM).
On to `COc1ccc2ncc(F)c(CCN3CCC(NCc4ccc(C)cc4)CC3)c2n1` [compound 40], for which the “levels of SSBs” value in test [1] is reported as “lower levels of SSBs”.
`COc1ccc2ncc(F)c(CCN3CCC(/C=C\c4ccc5c(c4)OCCO5)CC3)c2n1` [21b]: the “Fold Change” value in test [2] (setting [3]) was no less than 16.
For the compound `COc1ccc2ncc(F)c(CCN3CCC([C@@H](O)[C@H](O)c4ccc5c(c4)OCCO5)CC3)c2n1` [16b], the MIC in test [2] was determined as 0.5 µg/mL (≈ 1.03 µM).
Same read-out and setting: the value for `COc1ccc2ncc(F)c(CCN3CCC([C@@H](O)[C@H](O)c4ccc(C)cc4)CC3)c2n1` [16a] was 0.5 to 1 µg/mL (≈ 1.14 to 2.28 µM).

For the origin of these results see PMC11318591 (ACS Medicinal Chemistry Letters, 2024).
